Source: US6762052B1, “DNA sequence encoding flavin-containing monooxygenase” (priority 1993, dated 2004)
In brackets after ≈: the same amount, converted by molar mass. Like-named read-outs stand apart in the source and are kept apart here.

Experiments:
pig liver FMO form I = biological target: T1, pig liver FMO form I (Sus scrofa, UniProt P16549); conditions: cited from earlier work
T1 sequence (P16549 1-532): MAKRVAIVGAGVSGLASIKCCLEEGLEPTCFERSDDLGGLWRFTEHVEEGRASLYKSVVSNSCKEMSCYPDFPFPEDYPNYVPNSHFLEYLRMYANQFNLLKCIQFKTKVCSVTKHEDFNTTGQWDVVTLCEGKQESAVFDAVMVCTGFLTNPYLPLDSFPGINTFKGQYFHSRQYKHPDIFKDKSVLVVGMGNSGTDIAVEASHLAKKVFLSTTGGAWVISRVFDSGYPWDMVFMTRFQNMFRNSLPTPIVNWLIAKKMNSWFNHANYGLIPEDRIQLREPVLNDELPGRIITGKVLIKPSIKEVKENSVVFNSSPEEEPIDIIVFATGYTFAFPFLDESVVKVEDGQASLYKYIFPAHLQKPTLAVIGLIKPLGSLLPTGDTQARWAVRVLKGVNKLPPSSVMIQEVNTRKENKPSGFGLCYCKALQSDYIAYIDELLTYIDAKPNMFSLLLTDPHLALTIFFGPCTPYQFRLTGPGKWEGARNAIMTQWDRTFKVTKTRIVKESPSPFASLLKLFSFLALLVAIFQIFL

NM522 E. coli = assay: Bactericidal action / cytotoxicity in liquid culture
[1] = test system: E. coli strains that contained FMO3 cDNA; assay: Agar plate growth in the presence of difloxacin, strains with FMO3 cDNA; type: cell-based; conditions: same conditions (0.25 microgram/mL)
Excerpt: (§1) To validate the observations made in liquid culture, agar plate experiments were done in the presence of difloxacin with different strains streaked out containing different FMO cDNAs.

[2] = test system: E. coli containing FMO1 cDNA plasmid; assay: Agar plate growth in the presence of difloxacin, strain with FMO1 plasmid; type: cell-based; conditions: 0.25 microgram/mL
Excerpt: as §1

[3] = test system: human FMO3-maltose binding protein (FMO3-MBP); assay: Sequential N-oxygenation of primary amines to oximes by cDNA-expressed human FMO3-MBP; type: in vitro ADME
Excerpt: The cDNA-expressed human FMO3-maltose binding protein (FMO3-MBP) efficiently catalyzes the sequential N-oxygenation of primary amines to oximes through the intermediacy of hydroxylamines. […] In addition, formation was not dependent on autoxidation of hydroxylamines or generation of oxygen radical species. Thus, […] and O2^− had virtually no effect on the formation of oxime from the primary hydroxylamine. […] This represents a fundamental difference between FMO3 and other FMOs and indicates a use of FMO3 as a stereoselective catalyst in the formation of precious chemicals or hard to form metabolites having great stereochemical purity.

Human Liver Microsomes = assay: N- and S-oxygenation of substrates by adult human liver microsomes, products quantified by HPLC
Method: In all cases examined, product formation was directly determined by HPLC analysis of organic extracts.
Human liver samples were obtained from the Department of Surgery (UCSF) and with a protocol from the Medical College of Wisconsin (S. Wrighton).
A typical incubation mixture (final volume 0.25 ml) contained hepatic microsomes (0.4 mg of protein) or bacterial lysate (2.3 mg of protein), NADP^+ (0.5 mM), glucose-6-phosphate (2.0 mM), glucose-6-phosphate dehydrogenase (1 IU), DETAPAC (0.8 mM) and potassium phosphate buffer (50 mM, pH 8.4). Reactions were initiated by the addition of substrate and terminated at designated times by the addition of three volumes of cold dichloromethane, mixed thoroughly and centrifuged to separate the aqueous and organic fractions. N- and S-oxide metabolic products in the resulting organic extracts were separated and quantified by HPLC. […] Thiobenzamide and thiobenzamide S-oxide were quantified with this same, HPLC system employing a mobile phase of methanol/acetonitrile/60% perchloric acid (20:80:0.016, v/v) which gave retention volumes of 2.7 and 7.0 ml, respectively. […] The major metabolites formed in the incubations were also subjected to mass spectral analysis after extraction of isolated HPLC fractions.
RPLC of the S-oxide diastereomers with a Chiracel OT chiral analytical column (25 cm×0.15 cm inner diameter, Daicel Chemical Co., New York, N.Y.) was accomplished with a Beckman system, Kratos UV detector (240 nm) and a Hewlett Packard Integrator. […] Quantification was accomplished by comparing integrated HPLC peak areas after taking into account the difference in the extinction coefficients at 240 nm. Likewise, the cis and trans S-oxide diasteromers of (+)- and (−)-2-methyl-1,-benzodithiole were separated with a Chiracel OT chiral analytical column.

lys158-HFMO3-MBP = biological target: T2, lys158-HFMO3-MBP (Homo sapiens, UniProt P31513, E158K); assay: Substrate oxygenation by lys158-HFMO3-MBP fusion protein, HPLC; conditions: Lys 158 variant
T2 sequence (P31513 2-532 E158K): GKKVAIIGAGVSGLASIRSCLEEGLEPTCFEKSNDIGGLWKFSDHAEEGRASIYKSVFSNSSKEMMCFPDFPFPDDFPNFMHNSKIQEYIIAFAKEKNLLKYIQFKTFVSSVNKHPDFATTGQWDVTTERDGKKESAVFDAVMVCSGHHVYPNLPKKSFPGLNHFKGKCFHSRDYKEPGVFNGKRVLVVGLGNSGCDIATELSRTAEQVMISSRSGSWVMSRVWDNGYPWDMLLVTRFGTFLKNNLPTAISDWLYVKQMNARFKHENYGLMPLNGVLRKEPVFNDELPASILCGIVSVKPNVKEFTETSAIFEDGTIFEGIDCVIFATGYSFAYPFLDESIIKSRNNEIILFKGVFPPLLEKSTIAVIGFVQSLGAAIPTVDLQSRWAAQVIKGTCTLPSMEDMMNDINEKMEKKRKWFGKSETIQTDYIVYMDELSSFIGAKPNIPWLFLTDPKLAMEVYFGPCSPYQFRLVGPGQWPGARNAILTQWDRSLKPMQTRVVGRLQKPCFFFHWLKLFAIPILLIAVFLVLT
Method: For HFMO3-MBP assay, all HFMO3-MBP incubations were done as follows: Into a test tube was added DETAPAC (1.2 mM, final concentration for a 250 μl reaction) followed by the addition of 60 μl NADPH generating system (0.4 mM NADP, 0.4 mM glucose-6-phosphate, and 20 μl of a 50 units mI^−1 glucose-6-phosphate dehydrogenase). The tube was chilled on ice and buffer and enzyme were added as described below for individual experiments to give a volume of 240 μl. The incubation was initiated by the addition of 5-DTP (10 μl of 5 mM) and placed in a shaking water bath at 37° C. for 10 min (unless specified otherwise). The incubation was stopped by the addition of 1.0 ml of ice-cold CH2Cl2. Following the addition of sodium carbonate (approx. 20 mg), the culture tube was vortexed, centrifuged (2000×g, 10 min), and the organic layer was removed and transferred to a 1.5 ml microfuge tube. The organic solvent was evaporated under a stream of Ar(g) to dryness and the residue was taken up in MeOH (300 μl) for determination HPLC analysis.
Data was analyzed with a Hitachi D-2500 integrator.
MTS-oxygenation assays were carried out under the same buffer, temperature, time and volume conditions, as for the N-oxygenation assays. The reactions were initiated upon addition of 10 μl of a 5 mM solution of MTS. The reaction was quenched with the addition of 700 μl of 80% CH3CN:20% hexane then 20 mg NaCl(s) and vortexed vigorously for 10 sec. The quenched reactions were then centrifuged briefly to separate the phases. The organic layer, containing product and substrate, was removed and used directly for HPLC analysis.
All other instruments used were the same as above for the N-oxygenation reactions. Conditions for elution were 50% CH3CN/H2O (v:v) with a flow rate gradient as follows: 1.5 ml min^−1 from 0 to 4 min., 1.5-2.5 ml min^−1 from 4 to 5 min, 2.5 ml min^−1 from 5 to 15 min.
Trimethylamine is commonly ingested in foodstuffs or it is available in the diet of humans from choline and other sources. Trimethylamine (TMA) is exclusively eliminated in humans by metabolism to trimethylamine N-oxide (TMANO). […] Thus, urinary TMANO formation provides a simple, reliable and direct assay of FMO3 activity in adult humans. Analysis of TMA to TMANO ratios provides a direct means of phenotyping adult humans for FMO3 activity. Phenotyping FMO3 activity in humans would provide a simple means of evaluating the relationship between the presence of FMO3 and various disease conditions. […]

[4] = normal humans, dietary sources or otherwise; cited from earlier work
human FMO3 = human FMO3 (Homo sapiens, UniProt P31513); conditions: in vitro; cited from earlier work
not read = substrate: CN(C)C; assay: not read; conditions: other: Lys 158 variant; evaporative light scattering HPLC detection; 37.0 °C
Method: This HPLC system efficiently resolved the 5-DTP substrate from the N-oxide product with retention times of 5.30 min and 4.30 min, respectively.
MTS-oxygenation assays were carried out under the same buffer, temperature, time and volume conditions, as for the N-oxygenation assays. The reactions were initiated upon addition of 10 μl of a 5 mM solution of MTS. […]

[5] = substrate: NC(=S)c1ccccc1; assay: cells, lysate or membranes named; conditions: other: N- or S-oxide formation; for the 4-bromophenyl-1,3-oxathiolanes formation of the trans S-oxide; pH 8.4; 37.0 °C
Method: Competent NM522 Escherichia coli cells were transformed with the pTrc HLFMO 3 plasmid. […] After inoculation with a fresh overnight culture of NM522 containing pTrcHLFMO 3, the culture was grown at 37° C. until Abs600 was approximately 0.5 absorbance units. Finally, IPTG (0.8 mM) was added to the culture to induce expression of protein and the culture was left to grow overnight at 37° C.
The bacterial pellet was resuspended in 5 volumes of 50 mM potassium phosphate buffer (pH 8.4) containing 1% Triton X-100, 0.1% L-, α-phosphatidylcholine (L-α-lecithin) from egg yolk, 500 μM PMSF, and 1 mM EDTA. The mixture was sonicated and then centrifuged to remove cellular debris. […]

Chain of human FMO3 (P31513 whole entry): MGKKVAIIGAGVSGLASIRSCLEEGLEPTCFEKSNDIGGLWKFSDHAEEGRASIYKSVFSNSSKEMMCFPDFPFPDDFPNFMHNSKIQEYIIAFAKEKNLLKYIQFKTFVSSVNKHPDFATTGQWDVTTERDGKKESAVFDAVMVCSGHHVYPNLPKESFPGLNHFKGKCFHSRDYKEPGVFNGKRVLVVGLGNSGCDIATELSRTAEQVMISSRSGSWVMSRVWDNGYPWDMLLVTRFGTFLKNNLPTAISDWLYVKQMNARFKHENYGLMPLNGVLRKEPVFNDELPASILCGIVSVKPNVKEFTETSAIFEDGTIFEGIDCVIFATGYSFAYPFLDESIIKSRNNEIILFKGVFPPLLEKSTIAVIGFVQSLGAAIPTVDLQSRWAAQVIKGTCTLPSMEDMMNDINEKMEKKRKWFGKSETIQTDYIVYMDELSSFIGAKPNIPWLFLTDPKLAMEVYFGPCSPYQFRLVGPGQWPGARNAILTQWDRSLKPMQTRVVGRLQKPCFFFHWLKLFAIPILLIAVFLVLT

For `CN(C)CCCN1c2ccccc2CCc2ccccc21` [imipramine], the “substrate activity, in words” value (pig liver FMO form I) is listed as “excellent substrate”.

With `CN1CCN(c2cc3c(cc2F)c(=O)c(C(=O)O)cn3-c2ccc(F)cc2)CC1` [difloxacin] the EC50 (NM522 E. coli; Escherichia coli, read-out: bactericidal action EC50) was roughly 5 µg/mL (≈ 12.5 µM), the “sensitivity of strains containing FMO3 cDNA to the antibiotic” value [1] was “much more sensitive” and the “effect of FMO1 plasmid on growth in the presence of the antibiotic” value [2] was “conferred resistance”.

In the case of `NCCc1ccccc1` [phenethylamine], the “oxime formation from primary amine, product stereoselectivity” value ([3]; cDNA-expressed human FMO3-MBP) is reported as “stereoselectively converted to trans oximes” and the “oxime formation from primary amine, product stereoselectivity” value (Human Liver Microsomes; adult human liver microsomes, NADPH-dependent) is reported as “stereoselectively converted to trans oximes”.

In the case of `CN(C)C` [TMA, trimethylamine], the “Vmax of N-oxygenation to TMANO” value (lys158-HFMO3-MBP) is listed as 3.8 nmol of TMANO formed/min/mg of protein and the “dose converted to TMANO that is excreted in the urine” value [4] is listed as “over 95%”.

For `CCCCCCCCNN1c2ccccc2Sc2ccc(C(F)(F)F)cc21` [10-(N-n-octylamino)-2-(trifluoromethyl)phenothiazine], the “oxime formation from primary amine, product stereoselectivity” value [3] was “stereoselectively converted to the cis oxime” and the “oxime formation from primary amine, product stereoselectivity” value (Human Liver Microsomes) was “stereoslectively converted to the cis oxime”.

For `CN1CCC[C@H]1c1cccnc1` [(S)-nicotine], the “N-1'-oxide product stereoselectivity” value (human FMO3) is listed as “exclusively converted to trans (S)-nicotine N-1′-oxide”.

For `C[N+]1([O-])CCN(c2cc3c(cc2F)c(=O)c(C(=O)O)cn3-c2ccc(F)cc2)CC1` [difloxacin terminal tertiary amine N-oxide], the cytotoxicity (NM522 E. coli; 50 or 100 micrograms per mL) was “not significantly cytotoxic”.

B1: lys158-HFMO3-MBP (Homo sapiens; E158K) (protein)
chain: GKKVAIIGAGVSGLASIRSCLEEGLEPTCFEKSNDIGGLWKFSDHAEEGRASIYKSVFSNSSKEMMCFPDFPFPDDFPNFMHNSKIQEYIIAFAKEKNLLKYIQFKTFVSSVNKHPDFATTGQWDVTTERDGKKESAVFDAVMVCSGHHVYPNLPKKSFPGLNHFKGKCFHSRDYKEPGVFNGKRVLVVGLGNSGCDIATELSRTAEQVMISSRSGSWVMSRVWDNGYPWDMLLVTRFGTFLKNNLPTAISDWLYVKQMNARFKHENYGLMPLNGVLRKEPVFNDELPASILCGIVSVKPNVKEFTETSAIFEDGTIFEGIDCVIFATGYSFAYPFLDESIIKSRNNEIILFKGVFPPLLEKSTIAVIGFVQSLGAAIPTVDLQSRWAAQVIKGTCTLPSMEDMMNDINEKMEKKRKWFGKSETIQTDYIVYMDELSSFIGAKPNIPWLFLTDPKLAMEVYFGPCSPYQFRLVGPGQWPGARNAILTQWDRSLKPMQTRVVGRLQKPCFFFHWLKLFAIPILLIAVFLVLT
With B1 the Km (not read) was 634 µM.

B2: adult human liver flavin-containing monooxygenase (form 3) (Homo sapiens; E158K) (protein)
chain: MGKKVAIIGAGVSGLASIRSCLEEGLEPTCFEKSNDIGGLWKFSDHAEEGRASIYKSVFSNSSKEMMCFPDFPFPDDFPNFMHNSKIQEYIIAFAKEKNLLKYIQFKTFVSSVNKHPDFATTGQWDVTTERDGKKESAVFDAVMVCSGHHVYPNLPKKSFPGLNHFKGKCFHSRDYKEPGVFNGKRVLVVGLGNSGCDIATELSRTAEQVMISSRSGSWVMSRVWDNGYPWDMLLVTRFGTFLKNNLPTAISDWLYVKQMNARFKHENYGLMPLNGVLRKEPVFNDELPASILCGIVSVKPNVKEFTETSAIFEDGTIFEGIDCVIFATGYSFAYPFLDESIIKSRNNEIILFKGVFPPLLEKSTIAVIGFVQSLGAAIPTVDLQSRWAAQVIKGTCTLPSMEDMMNDINEKMEKKRKWFGKSETIQTDYIVYMDELSSFIGAKPNIPWLFLTDPKLAMEVYFGPCSPYQFRLVGPGQWPGARNAILTQWDRSLKPMQTRVVGRLQKPCFFFHWLKLFAIPILLIAVFLVLT
For B2, the Km [5] was 72.6 µM and the Vmax [5] was 1.44 nmol/min/mg of protein.
